The test system of one assay is soleus muscles. Put plainly: Measurement of force in an in vitro model: recovery of contractile force of isolated rat soleus nerve-muscle preparation after tubocurarine. How it is done:
Recovery of force is quantified as the percentage of the force prior to tubocurarine that is recovered by the compound.
The current invention relates to compounds that inhibit CIC-1 ion channels and increase muscle excitability and thereby improve muscle function in clinical conditions where muscle activation is failing. Such conditions result in loss of contractile function of skeletal muscle, weakness and excessive fatigue. In this series of experiments the compounds were tested for their ability to restore contractile function of isolated rat muscle when the neuromuscular transmission had been compromised akin to neuromuscular disorders.
Experimentally, soleus muscles from 4-5 week old rats were isolated with the motor nerve remaining attached. The nerve-muscle preparations were mounted in experimental setups that enabled electrical stimulation of the motor nerve. Stimulation of the motor nerve led to activation of the muscle fibres and ensuing force production that was recorded.
After mounting the nerve-muscle preparation in the experimental setup, the contractile function of the muscle was initially assessed under the control conditions (Figure 2A). […] The experimental condition mimics the failing neuromuscular transmission in a range of neuromuscular disorders. After addition of tubocurarine the contractile force declined over the next 90 mins to 10-50 % of the control force. 50 µM of the test compound was then added and the contractile force recovered despite the continued presence of tubocurarine. To quantify the ability of the compound to restore force the percentage of the initial force that was restored was determined after 40 mins of compound exposure (Figure 2B) and the point increase is reported in Table 3. Table 3: Percentage increase of initial force that was restored

The target of another assay is T1, human CIC-1 channels (Homo sapiens, UniProt P35523).
T1 construct: host or cells: CHO cells constitutively expressing human ClC-1
T1 sequence (P35523 whole entry): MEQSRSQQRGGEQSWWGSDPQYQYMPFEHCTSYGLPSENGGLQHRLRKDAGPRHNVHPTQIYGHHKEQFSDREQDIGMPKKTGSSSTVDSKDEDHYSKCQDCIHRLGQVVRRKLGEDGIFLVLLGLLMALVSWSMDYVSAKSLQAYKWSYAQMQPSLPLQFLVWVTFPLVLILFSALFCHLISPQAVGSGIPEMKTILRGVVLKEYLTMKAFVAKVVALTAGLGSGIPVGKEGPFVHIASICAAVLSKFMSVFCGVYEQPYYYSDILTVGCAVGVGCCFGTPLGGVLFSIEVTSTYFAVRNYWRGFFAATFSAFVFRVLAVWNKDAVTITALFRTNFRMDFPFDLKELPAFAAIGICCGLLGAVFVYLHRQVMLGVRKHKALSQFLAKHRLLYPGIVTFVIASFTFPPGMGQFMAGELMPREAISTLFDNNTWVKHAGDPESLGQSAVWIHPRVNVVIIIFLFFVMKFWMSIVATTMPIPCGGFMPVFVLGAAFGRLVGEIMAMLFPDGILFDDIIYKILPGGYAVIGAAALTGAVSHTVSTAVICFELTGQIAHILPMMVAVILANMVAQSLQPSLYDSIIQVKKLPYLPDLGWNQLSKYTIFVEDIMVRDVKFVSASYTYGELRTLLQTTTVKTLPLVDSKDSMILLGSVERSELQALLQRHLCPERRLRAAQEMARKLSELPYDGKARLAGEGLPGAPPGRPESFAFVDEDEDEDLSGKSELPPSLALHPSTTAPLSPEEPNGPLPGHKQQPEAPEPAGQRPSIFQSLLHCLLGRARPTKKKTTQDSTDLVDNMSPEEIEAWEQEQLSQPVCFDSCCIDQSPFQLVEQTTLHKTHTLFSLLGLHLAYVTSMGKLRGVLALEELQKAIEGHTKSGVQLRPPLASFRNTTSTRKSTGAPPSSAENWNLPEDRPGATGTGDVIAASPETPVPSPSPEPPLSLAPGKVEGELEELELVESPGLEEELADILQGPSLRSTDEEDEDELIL
Put plainly: Automated patch-clamp on the human isoform of CIC-1 expressed in CHO cells. The assay is classed as cell-based. The settings on record: compound added intracellularly vs control cell patches; positive shift reflects CIC-1 inhibition. How it is done:
The investigatory goal of these experiments was to evaluate how compounds affect the open probability and current amplitude of human CIC-1 channels expressed in CHO cells. Experiments were performed using an automated patch clamp system that allowed high throughput testing of whole cell patches together with both intracellular and extracellular addition of compound.
Automated whole cell patch clamp experiments were performed with the Qpatch 16 system (Sophion Bioscience, Ballerup, Denmark) at room temperature. Data acquisition and analysis were performed in the Qassay software (ver. 5.6, Odense).
To evoke CIC-1 currents in whole cell patches, the membrane potential was initially stepped from a holding potential of -30 mV to +60 mV for 100 ms and then to various test voltages (sweeps) ranging from +120 mV to -140 mV in steps of 20 mV for 300 ms. To obtain tail currents, the membrane potential was stepped to -100 mV after each test voltage for 300 ms and then relaxed to -30 mV for 2 sec between sweeps (Figure 3). I/V relationships for whole cell instant and steady state current amplitudes were obtained by plotting average current densities at the beginning and at the end of the 300 ms step against the membrane potential (Figure 4).
In order to determine the relative overall open probability (P0), the instantaneous tail currents were normalized to the maximal tail current obtained following the most positive voltage step and plotted against the test voltage. Plots of normalized tail currents from each whole cell patch were then fitted to a Boltzmann function allowing determination of half activation voltages (V1/2, Figure 5).
For automated patch clamp experiments extracellular solutions contained: 2 mM CaCl2, 1 mM MgCl2, 10 mM HEPES, 4 mM KCI, 145 mM NaCl, 10 mM Glucose, pH adjusted to 7.4 with NaOH (2 M). Osmolality adjusted to ~320 using sucrose.
Intracellular solutions contained: 80 mM CsF, 60 mM CsCI, 5/1 mM KOH/EGTA, 10 mM HEPES, 10 mM NaCl, pH adjusted to 7.2 with NaOH (2 M). Osmolality adjusted to ~320 mOsm using sucrose.
Cells used in patch clamp experiments were Chinese hamster ovary cells (CHO) constitutively expressing human CIC-1 channels. The amino acid sequence encoded by the cDNA used to create this cell line was identical to the translated sequence for GenBank accession number NM_000083.2. Cells were produced by Charles River (Catalogue CT6175, Cleveland OH, USA) in a cryopreserved format. Experiments were performed on the cells directly after thawing (3 × 10^6 cells used in each experiment).
To evaluate the compound effect on CIC-1, when applied directly to the intracellular side of the cell membrane, the half activation voltage, V1/2, was determined from whole cell patches with compound added to the intracellular solution and then compared to V1/2 determined from control cell patches with only vehicle added to the intracellular solution. Additionally, the effect of extracellular added compound was evaluated by determine V1/2 and steady state current amplitudes before and after exchanging the extracellular solution to contain compound.
The difference in half activation voltage of CIC-1 channels, ΔV1/2, was determined as the difference between the cell patches treated intracellularly with compound and control cells patches and is reported in Table 4 below. A positive shift in ΔV1/2 is reflecting CIC-1 channel inhibition by the tested compound. P-values of <0.05 is considered significant. […]

For `C#Cc1cc(Br)ccc1O[C@@H](C)C(=O)O` [Compound A-19, (2S)-2-(4-bromo-2-ethynylphenoxy)propanoic acid], the “average force (AUC) relative to initial force” value with soleus muscles (Figure 2: 50 µM compound after 90 min incubation in tubocurarine, 3 muscles) was “recovered”. The activation at 50 µM in the assay with soleus muscles (Rattus norvegicus, 40 min, 50 µM test compound, after 90 mins 115 nM tubocurarine, percentage of the initial force restored after 40 mins of compound exposure, read-out: Point increase) came to 31%. Further, the ΔV1/2 at human CIC-1 channels was found to be 7.7 mV.

The values are drawn from EP3723746B1, “PHENOXY ACIDS FOR THE TREATMENT OF NEUROMUSCULAR DISORDERS” (NMD Pharma A/S, priority 2017, dated 2019).
